Laboratory results published in ChEMBL document CHEMBL5543140 (J Med Chem, 2024).
Calls of active or inactive are those of the source. The calls are words filed in the database; no cut-off is given here.

Legend:
[1] = biological target: T1, 5-hydroxytryptamine receptor 2A (Homo sapiens, UniProt P28223); test: Displacement of [3H]LSD from human 5-HT2A receptor expressed in HEK293 cell membrane incubated for 90 mins by microbeta liquid scintillation counting method; assay type: cell membranes
[2] = biological target: T2, 5-hydroxytryptamine receptor 2B (Homo sapiens, UniProt P41595); test: Displacement of [3H]LSD from human 5-HT2B receptor expressed in HEK293 cell membrane incubated for 90 mins by microbeta liquid scintillation counting method; assay type: cell membranes
T2 sequence (P41595 whole entry): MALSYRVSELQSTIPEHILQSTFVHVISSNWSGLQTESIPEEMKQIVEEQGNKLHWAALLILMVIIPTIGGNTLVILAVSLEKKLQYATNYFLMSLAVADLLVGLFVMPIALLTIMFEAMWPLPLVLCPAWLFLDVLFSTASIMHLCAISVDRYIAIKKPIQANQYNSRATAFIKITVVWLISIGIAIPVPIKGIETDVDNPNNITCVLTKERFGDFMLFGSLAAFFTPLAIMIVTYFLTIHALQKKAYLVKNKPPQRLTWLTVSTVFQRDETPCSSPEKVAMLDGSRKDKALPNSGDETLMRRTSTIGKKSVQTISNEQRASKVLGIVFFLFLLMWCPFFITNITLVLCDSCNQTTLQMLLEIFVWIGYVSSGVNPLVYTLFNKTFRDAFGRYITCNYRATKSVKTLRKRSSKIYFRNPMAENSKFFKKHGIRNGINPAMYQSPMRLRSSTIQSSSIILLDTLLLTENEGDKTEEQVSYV

Mus musculus [3] = test: Psychedelic effect in C57BL/6J mouse assessed as number of head-twitch responses by visual observation at 3 mg/kg, po measured for 3 mins at 5 to 25 min; assay type: functional; settings: 0.05 h
[4] = biological target: T3, 5-hydroxytryptamine receptor 2C (Homo sapiens, UniProt P28335); test: Displacement of [3H]LSD from human 5-HT2C receptor expressed in HEK293 cell membrane incubated for 90 mins by microbeta liquid scintillation counting method; assay type: cell membranes
T3 sequence (P28335 whole entry): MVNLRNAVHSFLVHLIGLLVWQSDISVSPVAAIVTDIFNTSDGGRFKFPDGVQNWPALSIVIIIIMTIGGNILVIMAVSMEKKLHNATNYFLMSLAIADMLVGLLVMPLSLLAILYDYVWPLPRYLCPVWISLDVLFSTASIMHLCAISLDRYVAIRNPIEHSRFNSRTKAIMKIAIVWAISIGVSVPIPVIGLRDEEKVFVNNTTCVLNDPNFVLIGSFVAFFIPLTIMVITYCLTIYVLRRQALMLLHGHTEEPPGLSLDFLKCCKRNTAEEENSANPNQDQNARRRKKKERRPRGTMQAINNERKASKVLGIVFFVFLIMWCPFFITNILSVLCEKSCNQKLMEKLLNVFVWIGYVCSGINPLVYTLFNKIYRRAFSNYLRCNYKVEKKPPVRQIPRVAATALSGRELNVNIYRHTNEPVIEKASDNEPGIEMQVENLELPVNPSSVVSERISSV

Mus musculus [5] = test: Psychedelic effect in C57BL/6J mouse assessed as number of head-twitch responses by visual observation at 3 mg/kg, po measured for 3 mins at 160 to 170 min; assay type: functional; settings: 0.05 h
[6] = Metabolic stability in Sprague-Dawley rat liver microsomes assessed as deuteration effect measured upto 120 mins by LC-MS/MS analysis; assay type: ADME, Microsome; settings: 2 h
[7] = Metabolic stability of the compound assessed as recombinant human MAO-mediated oxidative metabolism by measuring compound remaining measured upto 120 mins by LC-MS/MS analysis; assay type: ADME; settings: 2 h
[8] = biological target: Muscarinic acetylcholine receptor M4 (Homo sapiens) (UniProt P08173); test: Displacement of [3H]4-DAMP from human recombinant muscarinic M4 receptor expressed in HEK293 cells at 10 uM incubated for 60 mins by radiometric based scintillation counter assay relative to control; assay type: cell-based
Chain of Muscarinic acetylcholine receptor M4 (Homo sapiens) (P08173 whole entry): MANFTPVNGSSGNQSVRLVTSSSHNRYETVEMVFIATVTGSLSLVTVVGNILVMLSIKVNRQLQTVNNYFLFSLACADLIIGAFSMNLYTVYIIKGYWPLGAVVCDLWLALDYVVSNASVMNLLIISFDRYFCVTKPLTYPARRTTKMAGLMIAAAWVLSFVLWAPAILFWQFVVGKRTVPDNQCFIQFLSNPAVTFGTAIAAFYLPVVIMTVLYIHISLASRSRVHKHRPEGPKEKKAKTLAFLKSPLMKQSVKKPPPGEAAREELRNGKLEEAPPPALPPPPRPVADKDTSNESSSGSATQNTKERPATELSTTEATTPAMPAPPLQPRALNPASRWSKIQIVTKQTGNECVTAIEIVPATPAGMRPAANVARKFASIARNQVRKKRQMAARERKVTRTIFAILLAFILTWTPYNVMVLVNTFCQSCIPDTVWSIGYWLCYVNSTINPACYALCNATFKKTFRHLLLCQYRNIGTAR

Mus musculus [9] = test: Locomotor activity in C57BL/6J mouse assessed as distance traveled at 1 mg/kg, ip measured for 15 to 25 mins; assay type: functional; settings: time 15-25 min
[10] = biological target: 5-hydroxytryptamine receptor 2C (Homo sapiens) (UniProt P28335); test: Agonist activity at human 5-HT2C receptor expressed in HEK293 cells assessed as maximal IP2 production measured after 30 mins incubation by HTRF assay relative to control; assay type: functional, cell-based; settings: filed as agonist
[11] = biological target: Adrenergic receptor alpha-2 (Rattus norvegicus) (UniProt P22086+P19328+P22909); test: Displacement of [3H]RX 821002 from rat cerebral cortex alpha2 adrenergic receptor assessed as remaining activity at 10 uM after 60 mins by scintillation counting method relative to control
[12] = biological target: T2, 5-hydroxytryptamine receptor 2B; test: Agonist activity at human 5-HT2B receptor expressed in CHO cells assessed as maximal IP2 production measured after 30 mins incubation by HTRF assay relative to control; assay type: functional, cell-based
[13] = biological target: Muscarinic acetylcholine receptor M1 (Homo sapiens) (UniProt P11229); test: Displacement of [3H]-Pirenzepine from human muscarinic M1 expressed in CHO-K1 cells membrane at 10 uM incubated for 60 mins by microbeta liquid scintillation counting analysis; assay type: cell membranes; settings: Cell membrane
Chain of Muscarinic acetylcholine receptor M1 (Homo sapiens) (P11229 whole entry): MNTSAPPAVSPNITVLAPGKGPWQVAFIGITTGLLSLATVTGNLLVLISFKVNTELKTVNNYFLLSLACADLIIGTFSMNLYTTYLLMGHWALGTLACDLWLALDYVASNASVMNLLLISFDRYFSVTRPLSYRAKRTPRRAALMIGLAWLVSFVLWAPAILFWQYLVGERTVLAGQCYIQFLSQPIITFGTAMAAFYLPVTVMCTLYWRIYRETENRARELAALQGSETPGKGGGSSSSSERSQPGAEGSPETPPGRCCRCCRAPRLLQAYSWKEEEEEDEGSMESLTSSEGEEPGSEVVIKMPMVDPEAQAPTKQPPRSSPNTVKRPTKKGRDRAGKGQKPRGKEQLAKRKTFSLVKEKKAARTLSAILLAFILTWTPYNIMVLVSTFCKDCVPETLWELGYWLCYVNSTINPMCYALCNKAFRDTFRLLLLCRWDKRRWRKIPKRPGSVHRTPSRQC

[14] = biological target: Muscarinic acetylcholine receptor M5 (Homo sapiens) (UniProt P08912); test: Displacement of [3H]4-DAMP from human recombinant muscarinic M5 receptor expressed in HEK293 cells at 10 uM incubated for 60 mins by radiometric based scintillation counter assay relative to control; assay type: cell-based
Chain of Muscarinic acetylcholine receptor M5 (Homo sapiens) (P08912 whole entry): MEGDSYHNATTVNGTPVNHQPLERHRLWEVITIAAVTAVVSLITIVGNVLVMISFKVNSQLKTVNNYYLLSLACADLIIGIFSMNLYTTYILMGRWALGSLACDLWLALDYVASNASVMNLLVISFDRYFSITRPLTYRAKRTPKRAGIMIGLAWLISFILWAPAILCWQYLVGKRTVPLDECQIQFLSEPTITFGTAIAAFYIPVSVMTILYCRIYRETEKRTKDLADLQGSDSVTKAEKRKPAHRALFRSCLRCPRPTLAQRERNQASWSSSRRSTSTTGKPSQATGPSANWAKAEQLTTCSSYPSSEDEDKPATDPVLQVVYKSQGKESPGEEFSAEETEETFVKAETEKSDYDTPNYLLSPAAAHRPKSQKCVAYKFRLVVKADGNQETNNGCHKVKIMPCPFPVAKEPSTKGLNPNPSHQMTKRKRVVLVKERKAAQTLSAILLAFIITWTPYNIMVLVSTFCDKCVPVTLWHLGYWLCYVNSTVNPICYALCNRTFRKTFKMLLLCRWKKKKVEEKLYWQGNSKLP

[15] = biological target: Voltage-dependent L-type calcium channel subunit alpha-1C (Homo sapiens, UniProt Q13936); test: Binding affinity to human Calcium channel L-type (verapamil site) at 10 uM measured after 180 mins by [3H]D888-Radiometric assay relative to control
Chain of Voltage-dependent L-type calcium channel subunit alpha-1C (Q13936 whole entry): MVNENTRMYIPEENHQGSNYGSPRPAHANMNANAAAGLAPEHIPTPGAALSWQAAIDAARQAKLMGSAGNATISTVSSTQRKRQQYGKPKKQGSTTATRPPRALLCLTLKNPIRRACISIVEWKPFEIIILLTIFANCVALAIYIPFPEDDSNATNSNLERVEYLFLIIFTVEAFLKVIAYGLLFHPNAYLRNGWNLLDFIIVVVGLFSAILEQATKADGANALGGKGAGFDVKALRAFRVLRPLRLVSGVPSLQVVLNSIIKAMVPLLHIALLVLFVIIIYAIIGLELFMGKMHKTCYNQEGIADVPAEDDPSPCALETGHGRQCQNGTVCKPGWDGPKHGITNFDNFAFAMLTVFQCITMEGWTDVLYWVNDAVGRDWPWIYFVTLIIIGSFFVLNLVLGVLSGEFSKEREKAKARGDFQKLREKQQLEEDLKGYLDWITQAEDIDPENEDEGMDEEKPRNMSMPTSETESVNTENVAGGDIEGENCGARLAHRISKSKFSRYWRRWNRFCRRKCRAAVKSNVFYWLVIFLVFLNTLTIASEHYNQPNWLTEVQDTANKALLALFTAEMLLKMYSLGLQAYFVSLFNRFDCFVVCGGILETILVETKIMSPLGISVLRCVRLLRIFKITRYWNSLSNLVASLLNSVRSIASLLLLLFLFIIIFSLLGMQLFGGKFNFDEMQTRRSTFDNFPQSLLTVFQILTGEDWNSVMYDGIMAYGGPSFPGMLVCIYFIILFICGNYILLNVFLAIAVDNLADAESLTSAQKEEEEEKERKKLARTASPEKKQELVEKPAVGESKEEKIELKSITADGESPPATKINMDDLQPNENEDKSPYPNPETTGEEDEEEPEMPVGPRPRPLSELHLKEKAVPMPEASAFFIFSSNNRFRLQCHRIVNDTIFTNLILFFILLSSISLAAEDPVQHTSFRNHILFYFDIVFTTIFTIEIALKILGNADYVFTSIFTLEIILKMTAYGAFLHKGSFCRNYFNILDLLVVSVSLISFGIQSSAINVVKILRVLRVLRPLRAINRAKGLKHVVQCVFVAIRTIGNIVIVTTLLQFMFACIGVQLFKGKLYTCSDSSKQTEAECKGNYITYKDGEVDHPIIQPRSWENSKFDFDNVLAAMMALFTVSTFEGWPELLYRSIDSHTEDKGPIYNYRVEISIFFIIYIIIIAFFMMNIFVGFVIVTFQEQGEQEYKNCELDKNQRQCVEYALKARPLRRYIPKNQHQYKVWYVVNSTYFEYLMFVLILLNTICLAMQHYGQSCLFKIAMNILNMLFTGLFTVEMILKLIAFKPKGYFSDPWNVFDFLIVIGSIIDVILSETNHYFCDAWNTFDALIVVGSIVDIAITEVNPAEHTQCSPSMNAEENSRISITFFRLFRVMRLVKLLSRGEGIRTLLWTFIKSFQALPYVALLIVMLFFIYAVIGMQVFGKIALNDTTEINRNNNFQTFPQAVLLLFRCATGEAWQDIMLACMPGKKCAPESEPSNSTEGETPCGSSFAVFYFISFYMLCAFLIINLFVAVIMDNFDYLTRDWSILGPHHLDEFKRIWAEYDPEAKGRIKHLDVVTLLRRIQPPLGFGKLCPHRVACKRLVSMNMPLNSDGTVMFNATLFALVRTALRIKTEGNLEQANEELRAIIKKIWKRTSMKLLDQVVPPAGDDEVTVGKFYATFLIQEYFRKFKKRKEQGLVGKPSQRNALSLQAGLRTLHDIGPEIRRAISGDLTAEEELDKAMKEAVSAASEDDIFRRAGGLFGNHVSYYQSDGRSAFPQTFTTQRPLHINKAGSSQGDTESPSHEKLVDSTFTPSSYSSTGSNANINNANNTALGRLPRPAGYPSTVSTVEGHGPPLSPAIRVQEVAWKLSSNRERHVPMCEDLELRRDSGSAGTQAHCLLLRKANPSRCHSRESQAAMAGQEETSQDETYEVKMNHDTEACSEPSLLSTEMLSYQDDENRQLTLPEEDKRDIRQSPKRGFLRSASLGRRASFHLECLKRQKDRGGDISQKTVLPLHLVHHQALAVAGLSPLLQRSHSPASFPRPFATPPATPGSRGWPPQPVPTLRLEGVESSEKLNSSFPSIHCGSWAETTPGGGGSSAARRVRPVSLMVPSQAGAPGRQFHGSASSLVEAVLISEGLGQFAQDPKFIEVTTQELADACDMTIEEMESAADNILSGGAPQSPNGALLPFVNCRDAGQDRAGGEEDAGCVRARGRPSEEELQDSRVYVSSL

Mus musculus [16] = test: Psychedelic effect in C57BL/6J mouse assessed as induction of 5-HT2A receptor dependent maximal head-twitch responses by visual observation at 1 mg/kg, sc at 15 to 220 mins; assay type: functional, organism-based; settings: time lower 15.0 min, time upper […]
[17] = biological target: T4, 5-hydroxytryptamine receptor 1A (Homo sapiens) (UniProt P08908); test: Agonist activity at human 5-HT1A receptor expressed in HEK293T cells co-transfected with 22F-Glosensor assessed as inhibition of cAMP production measured after 30 mins incubation by Microbeta2Micro-plate counter analysis; assay type: functional, cell-based; settings: filed as agonist
T4 sequence (whole entry): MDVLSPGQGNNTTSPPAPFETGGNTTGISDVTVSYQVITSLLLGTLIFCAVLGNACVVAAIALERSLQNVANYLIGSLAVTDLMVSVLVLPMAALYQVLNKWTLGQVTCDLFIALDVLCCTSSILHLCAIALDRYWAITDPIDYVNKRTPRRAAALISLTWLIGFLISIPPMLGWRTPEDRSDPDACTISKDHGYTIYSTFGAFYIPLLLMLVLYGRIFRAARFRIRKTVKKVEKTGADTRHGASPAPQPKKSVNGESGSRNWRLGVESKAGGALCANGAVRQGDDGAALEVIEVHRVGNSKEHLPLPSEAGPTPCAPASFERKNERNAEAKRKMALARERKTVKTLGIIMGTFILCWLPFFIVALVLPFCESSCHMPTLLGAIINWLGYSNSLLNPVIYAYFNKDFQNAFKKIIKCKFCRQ

[18] = biological target: T1, 5-hydroxytryptamine receptor 2A; test: Agonist activity at human 5-HT2A receptor expressed in HEK293 cells assessed as IP2 production measured after 30 mins incubation by HTRF assay; assay type: functional, cell-based; settings: read-out: EC50
[19] = biological target: T1, 5-hydroxytryptamine receptor 2A; test: Agonist activity at human 5-HT2A receptor expressed in HEK293 cells assessed as maximal IP2 production measured after 30 mins incubation by HTRF assay relative to control; assay type: functional, cell-based; settings: filed as agonist
[20] = Lipophilicity, logP of the compound; assay type: physicochemical; settings: octanol/water
[21] = Chemical stability of the compound in buffer solution at pH 1 to 6.8 measured for 5 days; assay type: physicochemical; settings: pH 1, 120 h, time 5 day
[22] = Chemical stability of the compound in water measured for 5 days; assay type: physicochemical; settings: buffer, 120 h; time 5 day

T1 sequence (P28223 whole entry): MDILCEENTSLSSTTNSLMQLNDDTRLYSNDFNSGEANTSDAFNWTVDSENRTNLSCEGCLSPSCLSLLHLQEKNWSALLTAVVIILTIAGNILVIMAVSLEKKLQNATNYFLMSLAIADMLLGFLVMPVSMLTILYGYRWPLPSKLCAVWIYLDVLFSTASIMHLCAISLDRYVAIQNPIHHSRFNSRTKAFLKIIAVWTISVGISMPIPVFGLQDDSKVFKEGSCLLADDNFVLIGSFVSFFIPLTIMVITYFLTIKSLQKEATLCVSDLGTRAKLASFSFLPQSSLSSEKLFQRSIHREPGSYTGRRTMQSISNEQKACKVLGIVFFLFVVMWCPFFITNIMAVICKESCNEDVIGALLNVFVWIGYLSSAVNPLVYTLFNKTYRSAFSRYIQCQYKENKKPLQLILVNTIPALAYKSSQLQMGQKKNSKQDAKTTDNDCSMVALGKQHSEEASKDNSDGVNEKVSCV

COc1cc(S(=O)(=O)C(F)F)c(OC)cc1CCN.Cl
Ki ([1]; read-out: Ki): 11 nM
Ki [2]: 20 nM
Activity (Mus musculus [3]): 5
Ki [4]: 83 nM
Activity (Mus musculus [5]): 1.7

COc1cc(SC)c(OC)cc1C[C@@H](C)N.Cl
Stability [6]: Stable
Stability [7]: Stable

Cl.[2H]C([2H])([2H])Oc1cc(SC)c(OC([2H])([2H])[2H])cc1CCN
Stability [6]: Stable
Stability [7]: Stable

COc1cc(CC(C)N)c(OC)cc1I (racemic)
inhibition [8]: 76%
Activity (Mus musculus [9]): 2812 cm
Emax [10]: 96%
Activity [11]: 82%
EC50 ([12]; read-out: EC50): 7 nM
EC50 ([12]; read-out: pEC50 (converted)): 7.94 nM
inhibition [13]: 72%
inhibition [14]: 63%
Activity [15]: 56%
Activity (Mus musculus [16]): Active
Emax [17]: 103%

COc1cc(SCC#N)c(OC)cc1CCN
EC50 [18]: 6.1 nM
Ki ([1]; read-out: Ki): 36 nM
Emax [19]: 77%

COc1cc(CCN)cc(OC)c1SC(F)(F)F
EC50 [18]: 41 nM
Ki ([1]; read-out: Ki): 45 nM
Emax [19]: 96%

Cl.[2H]C([2H])([2H])Oc1cc(SC)c(OC([2H])([2H])[2H])cc1C[C@@H](C)N
Stability [6]: Stable
Stability [7]: Stable

COc1cc(OCCCF)c(OC)cc1CCN
Ki ([1]; read-out: Ki): 1640 nM
Ki ([1]; read-out: pKi (converted)): 1700 nM

COc1cc(C(=O)C(C)(C)C)c(OC)cc1CCN
EC50 [18]: 850 nM
logP [20]: 2.34

COc1cc(SCC(F)(F)C(F)F)c(OC)cc1CCN.Cl
Ki ([1]; read-out: Ki): 34 nM
Ki ([1]; read-out: pKi (converted)): 38 nM
Ki [2]: 4.5 nM
Activity (Mus musculus [3]): 3.1
Ki [4]: 11 nM
Activity (Mus musculus [5]): 5.6

COc1cc(C2CCCC2)c(OC)cc1CCN
Ki ([1]; read-out: Ki): 134 nM

C#CCSc1cc(OC)c(CCN)cc1OC
EC50 [18]: 0.67 nM
Emax [19]: 100%

COc1cc(SCCCCF)c(OC)cc1CCN
Ki ([1]; read-out: Ki): 47 nM

COc1cc(S(=O)(=O)C(C)(C)C)c(OC)cc1CCN
EC50 [18]: 530 nM

COc1cc([S+]([O-])C(F)(F)F)c(OC)cc1CCN.Cl (stereo not drawn)
Ki ([1]; read-out: Ki): 19 nM
Ki [2]: 6.5 nM
Activity (Mus musculus [3]): 17
Ki [4]: 21 nM
Activity (Mus musculus [5]): 18

COc1cc(SC(F)(F)F)c(OC)cc1CCN.Cl
Activity (Mus musculus [3]): 21
Stability [21]: Stable
Stability [22]: Stable
Activity (Mus musculus [5]): 30

Cl.[2H]C([2H])([2H])Oc1cc(SC)c(OC([2H])([2H])[2H])cc1C[C@H](C)N
Stability [6]: Stable
Stability [7]: Stable

COc1cc(S(=O)(=O)CF)c(OC)cc1CCN.Cl
Ki ([1]; read-out: Ki): 5.9 nM
Ki ([1]; read-out: pKi (converted)): 6.03 nM
Ki [2]: 28 nM
Activity (Mus musculus [3]): 1.7
Ki [4]: 26 nM
Activity (Mus musculus [5]): 2.3

COc1cc(SCCCF)c(OC)cc1CCN
Ki [2]: 6.2 nM
Activity (Mus musculus [3]): 7.4
Ki [4]: 6.9 nM
Activity (Mus musculus [5]): 4.7

COc1cc(C[C@H](C)N)c(O)cc1SC.Cl
Stability [6]: Stable
Stability [7]: Stable

COc1cc(SCCC(F)(F)F)c(OC)cc1CCN.Cl
Ki ([1]; read-out: Ki): 10 nM
Ki [2]: 5.5 nM
Activity (Mus musculus [3]): 3.3
Ki [4]: 11 nM
Activity (Mus musculus [5]): 6.1

Cl.[2H]C([2H])(N)Cc1cc(OC)c(C(F)(F)F)cc1OC
Stability [6]: Stable
Stability [7]: Stable
